Tested on: Foreskin fibroblasts
Assay: VEGF production by cultured fibroblasts, ELISA of culture media
Type: cell-based
Conditions: media after 24 hours of culture
Method: (§1) Foreskin fibroblasts purchased from ATCC where cultured in T-75 flasks using Fibroblast Basal Media from ATCC. When cells reached 75% confluence, exposure to: a) Normoxia; b) hypoxia (2% oxygen for 4 hours); c) carbon monoxide (250 ppm) for 4 hours; or d) hypoxia followed by carbon monoxide. Cells were re-plated on 96 well plates, flat bottomed, by trypsinization. Concentration of re-plated cells was 0, 10,000, 20,000 and 40,000 cells per well. Culture media was extracted after 24 hours of culture and analyzed for VEGF production using ELISA (R&D Systems). […] No VEGF production was observed from Normoxic Control fibroblasts.
as §1, with “simultaneously as” for “followed by”, “monoxide” for “monoxide.”, “replated” for “re-plated”

In the case of `[C-]#[O+]` [carbon monoxide], the VEGF production (hypoxia (2% oxygen for 4 hours) followed by carbon monoxide (250 ppm, 4 hours), FIG. 1) is reported as “synergistic increase” and the VEGF production (hypoxia (2% oxygen for 4 hours) simultaneously as carbon monoxide (250 ppm), FIG. 2) is reported as “synergistic increase”.

— patent publication US11959102B2, “Augmentation of fibroblast regenerative activity” (Figene, LLC, priority 2017, dated 2024)
